From patent US20230271954A1 (Gossamer Bio Services, Inc., priority 2020, published 2023)

Key:
DGKζ = target: T1, DGKζ (Homo sapiens, UniProt Q13574); experiment: DGKζ biochemical assay (ADP-Glo); conditions: read-out: DGK ζ IC50
T1 construct: purchased Carna 12-110

DGKα = DGKα (Homo sapiens, UniProt P23743); experiment: DGKα biochemical assay (ADP-Glo); conditions: read-out: DGK α IC50
Outline: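 ADP-Glo kinase assay using OAG/PS (1:2) lipid substrate, sonicated, in HEPES pH 7.0 buffer with MgCl2, CaCl2, DTT, BSA, Triton X-100. Enzyme preincubated with compound 30 min at RT; substrate with ATP (DGKα: 400 μM) added, 45 min RT. Luminescence read; % inhibition vs DMSO and no-enzyme controls.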

DGKα, sequence (P23743 whole entry): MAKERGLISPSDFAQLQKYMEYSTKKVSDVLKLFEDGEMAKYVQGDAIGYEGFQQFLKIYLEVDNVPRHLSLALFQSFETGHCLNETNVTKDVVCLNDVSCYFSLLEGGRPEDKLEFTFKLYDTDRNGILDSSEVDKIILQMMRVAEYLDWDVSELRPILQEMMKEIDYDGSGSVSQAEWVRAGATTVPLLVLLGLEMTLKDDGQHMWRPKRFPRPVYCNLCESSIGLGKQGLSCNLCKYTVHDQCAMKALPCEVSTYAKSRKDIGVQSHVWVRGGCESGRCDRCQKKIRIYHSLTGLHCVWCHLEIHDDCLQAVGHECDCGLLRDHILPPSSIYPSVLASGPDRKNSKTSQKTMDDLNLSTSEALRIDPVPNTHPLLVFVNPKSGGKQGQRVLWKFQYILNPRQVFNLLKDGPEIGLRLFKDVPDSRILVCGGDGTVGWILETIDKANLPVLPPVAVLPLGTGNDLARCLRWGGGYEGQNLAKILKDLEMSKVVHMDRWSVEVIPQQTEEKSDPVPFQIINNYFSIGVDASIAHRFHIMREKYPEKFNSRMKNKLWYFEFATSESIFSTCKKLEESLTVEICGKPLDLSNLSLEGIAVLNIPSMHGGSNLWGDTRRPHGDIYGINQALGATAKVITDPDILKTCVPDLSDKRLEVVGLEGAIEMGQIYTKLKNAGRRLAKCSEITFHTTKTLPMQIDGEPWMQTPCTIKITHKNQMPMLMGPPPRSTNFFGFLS
T1 sequence (Q13574 1-929 isoform Q13574-4): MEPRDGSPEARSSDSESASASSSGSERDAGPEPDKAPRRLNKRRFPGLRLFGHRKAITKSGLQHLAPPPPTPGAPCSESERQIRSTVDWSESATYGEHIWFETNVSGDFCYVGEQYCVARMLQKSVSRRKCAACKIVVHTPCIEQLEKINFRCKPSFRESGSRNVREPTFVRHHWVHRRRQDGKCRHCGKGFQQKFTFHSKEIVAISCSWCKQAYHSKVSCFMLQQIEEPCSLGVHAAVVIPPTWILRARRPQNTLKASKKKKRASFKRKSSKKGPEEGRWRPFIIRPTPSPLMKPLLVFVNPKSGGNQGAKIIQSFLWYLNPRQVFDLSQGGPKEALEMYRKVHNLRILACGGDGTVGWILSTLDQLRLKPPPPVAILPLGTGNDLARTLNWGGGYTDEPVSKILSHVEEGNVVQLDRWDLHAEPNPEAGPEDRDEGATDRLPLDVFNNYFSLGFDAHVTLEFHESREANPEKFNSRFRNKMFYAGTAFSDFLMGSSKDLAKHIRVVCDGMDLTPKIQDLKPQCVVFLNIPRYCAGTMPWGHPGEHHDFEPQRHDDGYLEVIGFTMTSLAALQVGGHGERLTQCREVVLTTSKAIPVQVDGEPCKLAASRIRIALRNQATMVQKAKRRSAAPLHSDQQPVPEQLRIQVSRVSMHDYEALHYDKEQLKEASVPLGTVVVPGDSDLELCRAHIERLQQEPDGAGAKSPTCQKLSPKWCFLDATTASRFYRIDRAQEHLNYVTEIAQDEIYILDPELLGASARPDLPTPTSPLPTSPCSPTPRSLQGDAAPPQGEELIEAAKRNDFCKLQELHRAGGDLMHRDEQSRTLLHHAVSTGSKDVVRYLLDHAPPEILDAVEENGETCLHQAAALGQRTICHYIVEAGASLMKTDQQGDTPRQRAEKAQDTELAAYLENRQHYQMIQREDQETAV

SMILES | IC50 (DGKζ) [nM] | IC50 (DGKα) [nM]
CN1C(=O)COc2ccc(N(CC3CC3)[C@H]3CC[C@@H](N(C)c4c(C#N)c(=O)n(C)c5ccc(C#N)nc45)CC3)cc21 [Example 198, cis-8-((4-((cyclopropylmethyl)(4-methyl-3-oxo-3,4-dihydro-2H-benzo[b][1,4]oxazin-6-yl)amino)cyclohexyl)(methyl)amino)-5-methyl-6-oxo-5,6-dihydro-1,5-naphthyridine-2,7-dicarbonitrile] | ≥ 1000 | ≥ 1000
Cn1c(=O)c(C#N)c(N(C)[C@H]2CC[C@@H](N(CC3CC3)c3cccc4c3oc(=O)n4C)CC2)c2nc(C#N)ccc21 [Example 200, cis-8-((-4-((cyclopropylmethyl)(3-methyl-2-oxo-2,3-dihydrobenzo[d]oxazol-7-yl)amino)cyclohexyl) (methyl)amino)-5-methyl-6-oxo-5,6-dihydro-1,5-naphthyridine-2,7-dicarbonitrile] | ≥ 1000 | ≥ 1000
Cn1c(=O)c(C#N)c(N(C)[C@H]2CC[C@@H](N(C[C@H]3C[C@H](O)C3)c3ccc(F)cc3)CC2)c2nc(C#N)ccc21 [Example 201, cis-8-((-4-((4-fluorophenyl)((trans-3-hydroxycyclobutyl)methyl)amino)cyclohexyl) (methyl)amino)-5-methyl-6-oxo-5,6-dihydro-1,5-naphthyridine-2,7-dicarbonitrile] | ≥ 1000 | < 10
Cn1c(=O)c(C#N)c(N(C)[C@H]2CC[C@@H](N(CC3CC3)c3ccc4c(c3)C(=O)NC4)CC2)c2nc(C#N)ccc21 [Example 202, cis-8-((-4-((cyclopropylmethyl)(3-oxoisoindolin-5-yl)amino)cyclohexyl)(methyl)amino)-5-methyl-6-oxo-5,6-dihydro-1,5-naphthyridine-2,7-dicarbonitrile] | ≥ 1000 | ≥ 1000
Cn1c(=O)c(F)c(N(C)[C@H]2CC[C@@H](N(CC3COCCO3)c3ccc(F)cc3)CC2)c2nc(C#N)ccc21 (stereo partly drawn) [Example 203, cis-8-((-4-(((1,4-dioxan-2-yl)methyl)(4-fluorophenyl)amino)cyclohexyl)(methyl)amino)-7-fluoro-5-methyl-6-oxo-5,6-dihydro-1,5-naphthyridine-2-carbonitrile] | 100 to 1000 | < 10
CN1Cc2ccc(N(CC3CC3)[C@H]3CC[C@@H](N(C)c4c(C#N)c(=O)n(C)c5ccc(C#N)nc45)CC3)cc2C1=O [Example 204, cis-8-((-4-((cyclopropylmethyl)(2-methyl-3-oxoisoindolin-5-yl)amino)cyclohexyl)(methyl)amino)-5-methyl-6-oxo-5,6-dihydro-1,5-naphthyridine-2,7-dicarbonitrile] | ≥ 1000 | ≥ 1000
Cn1c(=O)c(F)c(N(C)[C@H]2CC[C@@H](N(CC3COCCO3)c3ccc(F)cc3F)CC2)c2nc(C#N)ccc21 (stereo partly drawn) [Example 205, cis-8-((-4-(((1,4-dioxan-2-yl)methyl)(2,4-difluorophenyl)amino)cyclohexyl)(methyl)amino)-7-fluoro-5-methyl-6-oxo-5,6-dihydro-1,5-naphthyridine-2-carbonitrile] | 10 to 100 | 10 to 100
Cn1c(=O)c(C#N)c(N(C)[C@H]2CC[C@@H](N(C(=O)C3CC3)c3ccc(F)cc3)CC2)c2nc(C#N)ccc21 [Example 206, cis-N-(4-((3,6-dicyano-1-methyl-2-oxo-1,2-dihydro-1,5-naphthyridin-4-yl)(methyl)amino)cyclohexyl)-N-(4-fluorophenyl)cyclopropanecarboxamide] | ≥ 1000 | 10 to 100
Cn1c(=O)oc2ccc(N(CC3CC3)[C@H]3CC[C@@H](N(C)c4c(C#N)c(=O)n(C)c5ccc(C#N)nc45)CC3)cc21 [Example 207, cis-8-((-4-((cyclopropylmethyl)(3-methyl-2-oxo-2,3-dihydrobenzo[d]oxazol-5-yl)amino)cyclohexyl) (methyl)amino)-5-methyl-6-oxo-5,6-dihydro-1,5-naphthyridine-2,7-dicarbonitrile] | ≥ 1000 | ≥ 1000

Second part, the molecule after the results:

IC50 (DGKζ) [nM] | IC50 (DGKα) [nM] | SMILES
≥ 1000 | 100 to 1000 | Cn1c(=O)cc(N(C)[C@H]2CC[C@@H](N(C(=O)C3CC3)c3ccc(F)cc3)CC2)c2nc(C#N)ccc21 [Example 208, cis-N-(4-((6-cyano-1-methyl-2-oxo-1,2-dihydro-1,5-naphthyridin-4-yl)(methyl)amino)cyclohexyl)-N-(4-fluorophenyl)cyclopropanecarboxamide]
≥ 1000 | 100 to 1000 | CC(C)C(=O)N(c1ccc(F)cc1)[C@H]1CC[C@@H](N(C)c2c(C#N)c(=O)n(C)c3ccc(C#N)nc23)CC1 [Example 209, cis-N-(4-((3,6-dicyano-1-methyl-2-oxo-1,2-dihydro-1,5-naphthyridin-4-yl)(methyl)amino)cyclohexyl)-N-(4-fluorophenyl)isobutyramide]
≥ 1000 | 10 to 100 | Cn1c(=O)cc(N(C)[C@H]2CC[C@@H](N(CC3CCS(=O)(=O)CC3)c3ccc(F)cc3)CC2)c2nc(C#N)ccc21 [Example 211, cis-8-((4-(((1,1-dioxidotetrahydro-2H-thiopyran-4-yl)methyl)(4-fluorophenyl)amino)cyclohexyl)(methyl)amino)-5-methyl-6-oxo-5,6-dihydro-1,5-naphthyridine-2-carbonitrile]
≥ 1000 | ≥ 1000 | Cn1c(=O)c(C#N)c(N(C)[C@H]2CC[C@H](N(CC3CC3)c3cc4c(cn3)OCO4)CC2)c2nc(C#N)ccc21 [Example 212, trans-8-((-4-([1,3]dioxolo[4,5-c]pyridin-6-yl(cyclopropylmethyl)amino)cyclohexyl)(methyl)amino)-5-methyl-6-oxo-5,6-dihydro-1,5-naphthyridine-2,7-dicarbonitrile]
100 to 1000 | 10 to 100 | Cn1c(=O)c(C#N)c(N(C)[C@H]2CC[C@@H](N(CC3CC3)c3cc4c(cn3)OCO4)CC2)c2nc(C#N)ccc21 [Example 213, cis-8-((-4-([1,3]dioxolo[4,5-c]pyridin-6-yl(cyclopropylmethyl)amino)cyclohexyl)(methyl)amino)-5-methyl-6-oxo-5,6-dihydro-1,5-naphthyridine-2,7-dicarbonitrile]
≥ 1000 | ≥ 1000 | Cn1c(=O)cc(N(C)[C@H]2CC[C@@H](N(Cc3ccccc3)CC3CC3)CC2)c2nc(C#N)ccc21 [Example 214, cis-8-((-4-(benzyl(cyclopropylmethyl)amino)cyclohexyl)(methyl)amino)-5-methyl-6-oxo-5,6-dihydro-1,5-naphthyridine-2-carbonitrile]
